Where only a bound is given, the exact number is not on record here.

For this test, the target named is T1, aryl hydrocarbon receptor (AHR) (Homo sapiens, UniProt P35869).
T1 sequence (P35869 11-848): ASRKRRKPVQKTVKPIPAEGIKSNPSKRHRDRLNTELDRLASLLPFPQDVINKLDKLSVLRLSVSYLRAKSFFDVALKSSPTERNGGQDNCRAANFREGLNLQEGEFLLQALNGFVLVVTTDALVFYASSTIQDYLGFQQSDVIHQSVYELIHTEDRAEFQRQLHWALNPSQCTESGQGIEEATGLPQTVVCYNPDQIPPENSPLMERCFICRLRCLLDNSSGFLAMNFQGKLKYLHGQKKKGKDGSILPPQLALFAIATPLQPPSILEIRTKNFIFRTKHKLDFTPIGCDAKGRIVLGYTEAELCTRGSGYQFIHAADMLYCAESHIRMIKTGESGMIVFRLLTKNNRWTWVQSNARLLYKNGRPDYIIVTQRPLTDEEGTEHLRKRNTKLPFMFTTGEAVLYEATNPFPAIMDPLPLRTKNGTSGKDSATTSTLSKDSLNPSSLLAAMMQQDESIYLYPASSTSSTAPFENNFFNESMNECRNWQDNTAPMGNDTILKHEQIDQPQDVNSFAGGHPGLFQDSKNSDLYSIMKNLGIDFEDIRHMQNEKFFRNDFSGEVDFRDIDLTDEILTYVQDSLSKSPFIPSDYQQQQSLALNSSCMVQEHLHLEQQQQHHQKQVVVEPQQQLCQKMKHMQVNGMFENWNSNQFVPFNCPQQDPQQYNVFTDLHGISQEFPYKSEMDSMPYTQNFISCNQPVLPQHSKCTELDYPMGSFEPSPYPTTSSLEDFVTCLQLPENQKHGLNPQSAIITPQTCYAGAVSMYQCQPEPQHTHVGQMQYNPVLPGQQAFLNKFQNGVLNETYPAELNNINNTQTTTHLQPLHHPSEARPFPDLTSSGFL
Description: DRE-Luciferase reporter high-throughput screen (AHR antagonist, VAF347-activated). In general terms: In a reporter assay the amount or activity of a reporter protein is the signal.
Description: HepG2 hepatocellular carcinoma cells were transfected with a dioxin-response element (DRE) Firefly luciferase reporter construct. Luciferase transcription was activated with the aryl hydrocarbon receptor (AHR) agonist, VAF347. Addition of an AHR antagonist results in inhibition of the luciferase transcription and a loss of signal in the assay.
HepG2, a hepatocellular carcinoma cell line, was transfected with the dioxin-response element Firefly luciferase reporter construct using the TransIT-transfection system. Prior to transfection, HepG2 cells (Sigma) were cultured at 90% confluency in Eagle's Modified Essential Medium (Sigma)+2 mM Glutamine (Sigma), +1^% Non Essential Amino Acids (Sigma)+10% Fetal Bovine Serum (Hyclone) and harvested and counted (Biorad TC20 cell counter). OptilMEM serum-free media and TransIT (Mirus) were mixed for transfection in 150 mm dishes by adding 240 μL Transit to 3.0 mL OptiMEM, vortexing briefly to mix, and incubating at room temperature for 20 minutes. The DNA mixture was prepared by adding 80 μg plasmid (pGudLuc6.1 plasmid, Garrison et al., (1996) Fundam. Appl. Toxicol., 30, 194-203), inverting to mix, and incubating at room temperature for 30 minutes. 30×10^6 HepG2 cells were seeded in 30 mL media and 3.3 mL of the DNA, OptiMEM, and TransIT mixture was added dropwise to the plate. The plate was mixed by rocking and incubated at 37° C./5% CO2 overnight. The next day, cells were harvested by aspirating media, washing once with sterile phosphate buffered saline (PBS, Gibco), trypsinzing with 0.05% Trypsin (Corning) and harvesting cells with culture medium, and freezing with Cell Freezing Media (Gibco) at 5 50×10^6 cells/vial in 1 mL/vial.
Transiently-transfected frozen HepG2 cells with DRE-Luciferase, were thawed in a 37° C. water bath and resuspended in complete media. 4 μL cells at 15,000 cells per well was transferred into the wells of a 1536-well Alphaplate assay plate (PerkinElmer) using TEMPEST liquid dispenser. The plate was centrifuged at 1000 rpm for 1 minute. 30 nL of the controls (1 μM (S)-2-(6-((2-(1H-indol-3-yl)ethyl)amino)-2-(5-fluoropyridin-3-yl)-9H-purin-9-yl)propan-1-ol or 100% DMSO) were transferred to the assay plate using the Pin Tool on BRAVO. 1 μL of VAF347 (15 nM final concentration) in complete media was added to the wells using TEMPEST. The plate was centrifuged at 1000 rpm for 1 minute and incubated at 37° C./5% CO2 overnight. After incubation, the plate was removed from the incubator and brought to room temperature. 2 μL of room temperature Steady-Glo luciferase detection reagent (Promega) was added to the wells with TEMPEST. The plate was centrifuged at 2000 rpm for 1 minute, sealed with clear plastic seal and kept at room temperature for 15 minutes prior to measuring luminescence on ENVISION.
Approximately 166,000 compounds were screened in 132 1536-well plates in the luciferase reporter gene assay at a final concentration of 12 μM. […] Each compound was tested at 0.1 μM, 1.0 μM, and 10 μM in the DRE luciferase assay and Cell Titer Glo cytotoxicity assay (Promega). […] 512 compounds were selected for 10-point dose-response in the AHR luciferase reporter assay and the Cell Titer Glo cytotoxicity assay.
`COc1ccc(N2CC(c3ccc(F)cc3)=CC2=O)cc1` [152A]: the half-maximal inhibitory concentration (IC50) (commonly the concentration that inhibits the measured activity by half) lay in the range of 1 to 2 µM.
Then `CN1CC(c2ccccc2)=Cc2c1ccc1nonc21` [188A], with 1 to 2 µM; and `c1ccc(-c2cc(-c3cn4cccnc4n3)on2)cc1` [128A], with 1 to 2 µM.
Then `COc1ccnc(N2CCN(c3ccc(Cl)cc3)CC2)c1C#N` [compound 80], with < 0.2 µM; and `COC(=O)C1=C(C)Nc2nc(-c3ccccc3)nn2C1c1cccnc1` (centres unmarked) [126A], with 1 to 2 µM.
Then `O=[N+]([O-])c1ccc(C2COC(c3ccc(Cl)cc3)O2)cc1` (centres unmarked) [102B], with 1 to 2 µM.
`N#Cc1ccc(OCc2ncc(C(F)(F)F)cc2Cl)cc1` [93A] gave a half-inhibitory concentration (IC50) of 1 to 2 µM.
Then `COc1ccc2[nH]c(C(=O)Nc3ccc(Br)c(C)n3)cc2c1` [25B], with 0.2 to 0.5 µM; and `CCC(C)C(=O)Nc1ccc(-c2nnc(-c3ccccc3C)o2)cc1` (centres unmarked) [83B], with 0.5 to 1 µM; and `CC(=O)c1cc(NC(=O)c2ccc(Cl)cc2)c(=O)n(Cc2ccc(Cl)cc2)c1C` [29A], with 1 to 2 µM.
Then `Nc1cnc(C(=O)c2ccc(Cl)cc2)s1` [66A], with 1 to 2 µM; and `CSc1cc(CSc2ccc(Cl)cc2)nc(-c2ccccn2)n1` [85A], with 1 to 2 µM.
Then `CNC(=O)c1ccsc1NC(=O)c1cccc(Oc2ccccc2)c1` [16B], with 1 to 2 µM.
On to `c1ccc(-c2ccc(N3CCOCC3)s2)cc1` [100B], for which the IC50 was > 2 µM.
In the case of `Cc1cc(NC(=O)c2nnn(-c3ccccc3)c2C)no1` [19B], the IC50 was > 2 µM.
In the case of `N#Cc1cc(NCCOCC(F)(F)F)nc2ccc([N+](=O)[O-])cc12` [154A] it was > 2 µM; in that of `O=C(Cn1cnnn1)N(CCc1ccccc1)c1nc(-c2ccccc2)cs1` [41B], 1 to 2 µM; in that of `CN(Cc1ccsc1)c1nc2ccccn2c1[N+](=O)[O-]` [68B], 1 to 2 µM.
`c1ccc(-c2ccc(OCc3ccno3)cc2)cc1` [130A] registered a half-maximal inhibitory concentration (IC50) of 1 to 2 µM.
`COc1cccc(-c2nn3c(-c4ccccn4)nnc3s2)c1` [98A] returned an IC50 of 1 to 2 µM.
With `COc1cccc(Nc2ccc(-c3ccccc3)nn2)c1` [88A], the half-inhibitory concentration (IC50) was > 2 µM.
Then `Cc1nc(NC(=O)c2cc(C(C)(C)C)n[nH]2)sc1SCC#N` [34A], with > 2 µM.
In the case of `O=C(Nc1ccc(C(F)(F)F)oc1=O)c1ccc(Cl)cc1` [17B] it was 0.5 to 1 µM; in that of `CCN1C(=O)C[C@@H]2[C@@H]1CCN2S(=O)(=O)Cc1ccc(C)cc1` [182A], 1 to 2 µM.
In the case of `COC(=O)c1cccc(NC(=O)c2nsc3ccccc23)c1` [compound 33] it was 0.2 to 0.5 µM; in that of `Cc1ccc2nc(C3=C(N)N(CC(C)C)CC3=O)[nH]c2c1` [113A], 1 to 2 µM.
In turn, `Cc1c(COc2ccccc2C#N)noc1-c1ccc(F)cc1` [129A] had a half-maximal inhibitory concentration (IC50) of 1 to 2 µM.
Then `O=C(Nc1ncccc1Br)c1cc(-n2cccn2)ccn1` [17A], with 1 to 2 µM; and `COc1nc2ccccc2nc1CCC(=O)NC1CCCCCC1` [161A], with > 2 µM; and `O=C(NC1CC1)c1cnc(-c2noc3ccccc23)s1` [61A], with 1 to 2 µM.
In the case of `O=C(Nc1ccc(OC(F)F)c(Cl)c1)c1cccc(Cl)c1` [5B] it was 0.5 to 1 µM; in that of `Cc1ccc(NC(=O)c2cc3c(=O)[nH]c(=O)n(C)c3nc2C)cc1Cl` [28B], 0.2 to 0.5 µM; in that of `O=C(Nc1ccc(OC(F)(F)F)cc1)c1ccc(F)cc1` [6A], 1 to 2 µM.
In the case of `CC(C)(C)c1cc(C(=O)Nc2ccc3c(c2)CCN3S(C)(=O)=O)nc2ncnn12` [compound 48] it was < 0.2 µM; in that of `COc1ccc(C(=O)c2cnc3ncccn23)cc1` [121A], > 2 µM; in that of `Cc1cc(C)c2cc(C(=O)N(C)Cc3ccc(C)o3)[nH]c2c1` [62B], 0.5 to 1 µM.
Turning to `O=C(Nc1ccc(Cl)cn1)C1Cc2ccccc2C1` [26B], the IC50 fell in the range of 0.5 to 1 µM.
For `Cc1ccc(C(=O)Nc2ccc(Br)c(C)n2)c(Cl)c1` [8B], the half-maximal inhibitory concentration (IC50) fell in the range of 0.5 to 1 µM.
Then `CN(C)c1ccc(-c2nnc(-c3cccs3)o2)cc1` [compound 149], with 0.5 to 1 µM; and `CCOC(=O)c1ccc(Nc2nc3nonc3[nH]/c2=N\OC(C)=O)cc1` [97B], with 1 to 2 µM.
On to `Cc1cc(C)nc(N2CCN(c3ccc(Cl)cc3)CC2)n1` [70A], for which the IC50 is > 2 µM.
Then `CCCNC(=O)c1cc2sc(Cl)cc2n1C` [180A], with > 2 µM; and `Cc1cccn2c(=O)c3cc(C(=O)NCc4ccccc4Cl)sc3nc12` [125B], with 0.2 to 0.5 µM; and `Cc1cc(C)c(C#N)c(SCc2cc(-c3cccs3)on2)n1` [79B], with 1 to 2 µM.
In the case of `COc1ccccc1N(C(=O)c1ccc(O)nc1)c1nc(-c2ccc([N+](=O)[O-])cc2)cs1` [compound 56] it was 0.2 to 0.5 µM; in that of `CCOc1ccc(-n2nc3ccc(NC(=O)COc4ccccc4Cl)cc3n2)cc1` [73B], 0.5 to 1 µM.
Take `Clc1ccc(-c2nc3cc(Br)cnc3[nH]2)cc1` [72B]: the half-maximal inhibitory concentration (IC50) is < 0.2 µM.
Then `Cc1ccc(C(=O)Nc2cc(C(C)(C)C)on2)cc1` [25A], with > 2 µM; and `COc1ccc2c(c1)-c1cccc([N+](=O)[O-])c1CC2C#N` (centres unmarked) [compound 152], with 0.5 to 1 µM.
In the case of `CCn1cc(C(=O)Nc2ccc(Br)cn2)cn1` [33A] it was > 2 µM; in that of `COc1ccc(-c2cc3ncc(-c4ccccc4)c(N)n3n2)cc1` [118A], 1 to 2 µM.
`COc1ccc(C(=O)Nc2nc3c(s2)CCCC3)cc1` [171A]: the 50% inhibitory concentration (IC50) lay in the range of 1 to 2 µM.
With `Cc1ccc(NC(=O)CSc2nnc(C)c3ccccc23)cc1` [160A], the IC50 was in the range of 1 to 2 µM.
As for `CN(Cc1ccn(C)n1)C(=O)c1cc(-c2ccc(Cl)c(Cl)c2)[nH]n1` [104A], the 50% inhibitory concentration (IC50) is > 2 µM.
`Cc1nn(-c2nc3ccccc3[nH]2)c2c1C(=O)CC(c1cccs1)C2` (centres unmarked) [66B] came in with a half-inhibitory concentration (IC50) of 1 to 2 µM.
In the case of `CCOC(=O)c1c(C)[nH]c(-c2cn3ccccc3n2)c1C` [compound 102] it was 0.2 to 0.5 µM; in that of `Cc1ccc(NC(=O)c2cc3ccccc3n(C)c2=O)cc1` [29B], 1 to 2 µM.
Then `COc1ccc(Nc2oc(-c3ccccc3C)nc2C#N)cc1` [78B], with 0.5 to 1 µM; and `O=C(Nc1ccc(-c2cnco2)cc1)c1ccc(F)cc1F` [3B], with 0.2 to 0.5 µM.
In the case of `Cc1nc2nc(SCCOc3ccc(C#N)cc3)nn2c(C)c1C` [125A] it was 1 to 2 µM; in that of `COc1ccc(NC(=O)c2ccc(C(F)(F)F)[nH]c2=O)cn1` [18A], > 2 µM; in that of `N#Cc1c(NC(=O)Nc2ccc(Cl)c(Cl)c2)sc2c1C1CCN2CC1` [192A], 1 to 2 µM.
Take `Cc1ccc(CS(=O)(=O)c2ccc(C(F)(F)F)cn2)cc1` [92A]: the half-inhibitory concentration (IC50) was in the range of 1 to 2 µM.
In the case of `CCc1c(C(=O)Nc2c(C)nn(-c3ccccc3)c2C)cnn1-c1ccc([N+](=O)[O-])cc1` [30A] it was 1 to 2 µM; in that of `CNC(=O)N(C)C(=O)c1cnc2onc(-c3ccc(C)cc3)c2c1` [173A], 1 to 2 µM.
In the case of `CCn1c2ccccc2c2nnc(-n3nc(C)cc3C)nc21` [122B], the half-maximal inhibitory concentration (IC50) was in the range of 1 to 2 µM.
In the case of `Cc1ccc(-c2nc(Cn3cnc(C#N)n3)co2)c(C)c1` [134A] it was 1 to 2 µM; in that of `Clc1ccc(-c2noc(-c3c[nH]nc3-c3ccccc3)n2)cc1` [86B], > 2 µM; in that of `O=C(Nc1cccc(Cl)c1)c1ccc(-n2cccn2)c([N+](=O)[O-])c1` [4A], 1 to 2 µM.
In the case of `CCC(=O)N1CCc2nc(-c3ccccc3)sc2C1` [compound 147] it was 0.5 to 1 µM; in that of `Cc1cc2cc(Nc3nccc(C(F)(F)F)n3)ccc2[nH]1` [compound 84], 0.2 to 0.5 µM; in that of `COc1ccc2cc(C)c3nn(CCNC(=O)c4sc(C)nc4C)c(=O)n3c2c1` [191A], > 2 µM.
In the case of `Cn1ccc(NC(=O)c2cc(-c3cccc(Cl)c3)[nH]n2)n1` [31A] it was > 2 µM; in that of `Cc1nc(N2CCN(c3ccccc3F)CC2)nc2c1C(=O)CCC2` [77A], 1 to 2 µM; in that of `CN(c1nnc(NC(=O)Nc2ccccc2C(F)(F)F)s1)C1CCCCC1` [145A], 1 to 2 µM.
Turning to `Cc1c(C(N)=O)nnc2cc(-c3ccccc3)nn12` [75B], the half-maximal inhibitory concentration (IC50) is 1 to 2 µM.
In the case of `O=C(NCCc1ccccc1)c1cnc(-c2noc3ccccc23)s1` [60A] it was > 2 µM.
In the case of `Cn1nc(C(F)(F)F)c2cc(C(=O)Nc3ccc(F)cc3)sc21` [24B] it was 0.5 to 1 µM; in that of `CC(C)C(=O)Nc1ccc2c(c1)C(=O)c1c-2nn(C)c1C(C)(C)C` [compound 148], 0.5 to 1 µM.
Then `COc1cccc(Cn2c3c(cc(NC(=O)c4ccc(C)cc4)c2=O)C(=O)CCC3)c1` [44A], with 1 to 2 µM; and `CCc1cccc2c(C(=O)CSc3nnnn3C)c[nH]c12` [63B], with 1 to 2 µM.
Consider `COc1ccnc(Sc2ccc(Cl)cc2)c1C#N` [94A], for which the IC50 lay in the range of 1 to 2 µM.
Then `O=C1CC(c2ccc(Cl)cc2)CN1C(=O)Nc1ccccc1` (centres unmarked) [103B], with 0.5 to 1 µM.

The values above are taken from patent US20210220408A1, “ARYL HYDROCARBON RECEPTOR ANTAGONISTS AND METHODS OF USE” (Magenta Therapeutics Inc., priority 2018, published 2021).
